Entries after “also recorded” stand apart in the source; their conditions may differ. Where two headings read alike, the source gives them in different places.
How the values were obtained:
[1] = Pharmacokinetics of α-MG after oral administration to mice (automated microsampling); format: in vivo; details: for CL renal / Cmax / AUC / Tmax / half-life / Ae 0–24 h / GI 24 h: oral; for Tmax: median (ranges); for half-life: read-out: Terminal half-life
Procedure: The surgical procedures were conducted under intramuscular injection anesthesia with 125 mg (1.5 mL)/kg of tiletamine HCl and zolazepam HCl mixture. The carotid artery (for intravenous and oral studies) and the jugular vein (for intravenous study) were cannulated using CX-2052S and CX-2022S catheters (BASi, West Lafayette, IN), respectively. After the mice awoke from anesthesia, the administration of α-MG and blood sampling were performed, [12], [31].
α-MG (the same solution as used in the intravenous study) at doses of 10, 50 and 100 mg (10 mL)/kg was administered orally using a gastric gavage tube after overnight fasting with free access to water. A blood sample using the microsampling system was collected via the carotid artery at 0, 5, 15, 30, 60, 90, 120, 180, 240, 300 and 360 min after the oral administration of α-MG. Other procedures were similar to those in the intravenous study.
The analytical method for measuring α-MG was modified from a previous report. In sample preparation, 100 μL of acetonitrile containing 1 μg/mL IS was added to 50 μL of aliquot of the sample. After vortex-mixing and centrifugation (15000 × g for 10 min), 10 μL of the supernatant was directly injected into a reversed-phase C18 column (Cadenza CD-C18, 2 mm × 75 mm i.d., 3-μm particle size; Imtakt, USA) kept at 4°C until injection. The analytes were monitored using a API4000 triple quadrupole mass spectrometer (AB Sciex, Foster City, CA) equipped with a turbo ion-spray interface for electrospray ionization and operated in positive ion mode at 5500 V and 500°C at 50 L/min of nebulizing gas flow, 50 L/min of turbo ion-spray gas flow, 20 L/min of curtain gas flow, 5500 V of ring voltage and 5 Torr of collision gas (nitrogen) pressure.
Standard methods were used to calculate the following pharmacokinetic parameters using a non-compartmental analysis (WinNonlin 2.1; Pharmasight Corp., Mountain View, CA). The extent of absolute oral bioavailability (F) was calculated by dividing the AUCoral/AUCiv at the same dose. The peak plasma concentration (C max) and time to reach C max (T max) were read directly from the […] data.

[2] = Tissue distribution of α-MG (tissue-to-plasma ratios) after intravenous and oral administration; format: in vivo, mice
Procedure: The surgical procedures and administration of α-MG were conducted according to a previously reported method, [12], [31]. At 30 and 180 min after intravenous and oral administration of α-MG at doses of 10 mg/kg, as much blood as possible was collected via the carotid artery and each mouse was then sacrificed by cervical dislocation. Each liver, spleen, stomach, small intestine, large intestine, mesentery, kidney, fat, muscle, heart, lung, and brain was excised, weighted and homogenized with a volume of distilled water at 4 times the each organ. After centrifugation for 10 min, the supernatant was collected and all samples stored at –80°C until required.

[3] = Metabolism of α-MG in in vitro S9 fractions of other tissues; format: in vitro ADME, mice; details: other tissues studied, spiked 1 and 20 μg/mL
Description: The procedures for using S9 fractions from various tissues were similar those already reported. Each liver, stomach, small intestine, large intestine, lung, heart, kidney, fat, mesentery, muscle, and brain was excised after cervical dislocation (n = 6). Each tissue sample was rinsed with cold 0.9% NaCl-injectable solution, blotted dry with tissue paper and weighed. Then each tissue was homogenized with a volume of 0.25 M sucrose at 4 times of each tissue. Metabolic activity was initiated by adding a 100 μL aliquot of the 9000 × g supernatant fraction (S9) of each tissue to a 135 μL of Tris-buffer (pH 7.4), 5 μL of 0.9% NaCl-injectable solution with 1 or 20 μg/mL α-MG as a final concentration, 5 μL (1 mM) of NADPH and 5 μL (3.3 mM) of UDPGA. A 250 μL aliquot of acetonitrile (containing 1 μg/mL of the IS) was added after a 30 min incubation in a thermomixer (37°C and 500 opm) to terminate the enzyme activity. The amount of remaining α-MG in the S9 fraction of each tissue was determined using the HPLC-MS/MS analytical method.

[4] = Tentative identification of metabolites from α-MG by UPLC-MS/MS; format: in vivo; details: mice after intravenous and oral α-MG; S9 fractions after 30-min incubation
Description: Probable metabolites of α-MG were identified using the simultaneous full scan MS, MRM and MS/MS modes in a Waters UPLC-XEVO TQ system (Waters Corporation, Milford, USA) to confirm the structures of any metabolites. […] Structural elucidation of the metabolites was based on the fragmentation patterns of parent ion from the MS/MS mode at a collision energy of 10 to 20 eV generating daughter ions. The mass transitions for α-MG was m/z 411.21 → 354.85 (collision energy of 20 eV and collision cell exit potential of 25 eV, respectively). The unknown masses were further analyzed in MS/MS (daughter scan) mode with the electrospray ionization interface used to generate positive and negative ions at a capillary voltage of 3.0 kV, source temperature of 350°C and desolvation gas temperature of 650°C. The MRM methods for identification of possible metabolites generated by phase I and/or II reactions were included.
These compounds were separated on a reversed-phase C18 column (XSELECT CSH, 2.1 mm × 100 mm i.d., 1.7-μm particle size; Waters, Ireland) with a flow rate of 0.35 mL/min. The mobile phase composition was started at 95: 5 (v/v) of distilled water containing 0.1% formic acid (A) and acetonitrile (B) and gradually changed to 35: 65 (v/v) for 30 min, and then switched back to 95: 5 (v/v) for 40 min.

P-glycoprotein = molecular target: T1, P-glycoprotein (Homo sapiens, UniProt P08183); assay: P-glycoprotein substrate test in MDCK-mdr1 cell line; format: in vitro ADME; details: our unpublished data
T1 construct: expressed in transfected cells; host or cells: MDCK-mdr1 (canine kidney cells carrying an mdr1 transgene; transfection is inferred from the cell line name)

Caco2 cell line = tested on: Caco2 cell line; set-up: method as in PMID 19415666; details: cited from earlier work

T1 sequence (P08183 whole entry): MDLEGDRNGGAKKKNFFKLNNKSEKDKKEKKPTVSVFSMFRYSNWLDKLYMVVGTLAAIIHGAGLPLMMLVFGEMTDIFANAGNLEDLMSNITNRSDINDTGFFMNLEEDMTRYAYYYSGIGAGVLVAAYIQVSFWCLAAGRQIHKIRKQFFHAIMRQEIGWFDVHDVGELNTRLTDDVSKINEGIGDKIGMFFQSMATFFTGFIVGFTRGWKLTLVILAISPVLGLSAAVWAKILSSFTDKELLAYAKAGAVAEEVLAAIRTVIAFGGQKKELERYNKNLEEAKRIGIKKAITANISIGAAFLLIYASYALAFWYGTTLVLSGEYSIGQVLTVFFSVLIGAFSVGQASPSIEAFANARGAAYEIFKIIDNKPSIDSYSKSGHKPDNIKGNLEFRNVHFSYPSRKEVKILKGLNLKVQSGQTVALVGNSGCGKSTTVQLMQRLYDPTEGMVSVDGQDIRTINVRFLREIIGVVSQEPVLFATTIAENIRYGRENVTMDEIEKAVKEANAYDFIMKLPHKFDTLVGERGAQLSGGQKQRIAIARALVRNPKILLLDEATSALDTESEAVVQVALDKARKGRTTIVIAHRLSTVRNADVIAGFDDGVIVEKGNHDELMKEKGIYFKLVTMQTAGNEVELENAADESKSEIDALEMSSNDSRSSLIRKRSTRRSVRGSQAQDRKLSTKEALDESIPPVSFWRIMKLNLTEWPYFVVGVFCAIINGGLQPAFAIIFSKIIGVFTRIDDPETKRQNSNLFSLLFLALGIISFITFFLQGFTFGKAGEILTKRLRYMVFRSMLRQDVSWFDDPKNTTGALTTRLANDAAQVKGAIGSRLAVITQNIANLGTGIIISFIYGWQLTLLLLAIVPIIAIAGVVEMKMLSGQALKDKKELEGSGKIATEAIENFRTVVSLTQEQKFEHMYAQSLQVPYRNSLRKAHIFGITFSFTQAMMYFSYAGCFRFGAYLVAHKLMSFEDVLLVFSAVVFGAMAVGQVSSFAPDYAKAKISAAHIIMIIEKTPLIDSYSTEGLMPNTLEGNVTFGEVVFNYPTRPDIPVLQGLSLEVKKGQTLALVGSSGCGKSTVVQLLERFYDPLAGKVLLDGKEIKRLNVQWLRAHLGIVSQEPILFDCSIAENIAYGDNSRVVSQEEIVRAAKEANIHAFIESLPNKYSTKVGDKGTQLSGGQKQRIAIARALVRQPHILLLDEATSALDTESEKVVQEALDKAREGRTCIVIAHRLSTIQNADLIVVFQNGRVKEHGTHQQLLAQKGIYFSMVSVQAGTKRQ

COc1c(O)cc2oc3cc(O)c(CC=C(C)C)c(O)c3c(=O)c2c1CC=C(C)C [α-MG, α-Mangostin]
first blood sampling time point at which detected in plasma ([1]; after oral administration): 5 min
F unabs ('true' fraction of the oral dose unabsorbed) ([1]; calculated by reported equation assuming linear pharmacokinetics): 0.434
bioavailability ([1]; mouse, plasma, oral 10 mg/kg, AUCoral/AUCiv at the same dose, read-out: F (absolute oral bioavailability)): 2.29%
CL renal ([1]; mouse, plasma, 10 mg/kg): 0.535 ± 0.309 mL/min/kg
Cmax ([1]; mouse, plasma, 10 mg/kg): 40.3 ± 30.7 ng/mL
AUC ([1]; mouse, plasma, 10 mg/kg (n = 8)): 130 ng·h/mL
Tmax ([1]; mouse, plasma, 10 mg/kg): 1 h
half-life ([1]; mouse, plasma, 10 mg/kg): 2.95 ± 1.18 h
CL renal ([1]; mouse, plasma, 50 mg/kg): 0.547 ± 0.309 mL/min/kg
Cmax ([1]; mouse, plasma, 50 mg/kg): 242 ± 35 ng/mL
AUC ([1]; mouse, plasma, 50 mg/kg (n = 7)): 622 ng·h/mL
Tmax ([1]; mouse, plasma, 50 mg/kg): 0.5 h
half-life ([1]; mouse, plasma, 50 mg/kg): 3.28 ± 1.35 h
CL renal ([1]; mouse, plasma, 100 mg/kg): 0.418 ± 0.229 mL/min/kg
Cmax ([1]; mouse, plasma, 100 mg/kg): 709 ± 397 ng/mL
AUC ([1]; mouse, plasma, 100 mg/kg (n = 9)): 1390 ng·h/mL
Tmax ([1]; mouse, plasma, 100 mg/kg): 1 h
half-life ([1]; mouse, plasma, 100 mg/kg): 2.52 ± 0.822 h
Ae 0–24 h ([1]; 10 mg/kg): 0.0255 ± 0.0107 % of dose
GI 24 h ([1]; 10 mg/kg): 43.5 ± 10.6 % of dose
Ae 0–24 h ([1]; 50 mg/kg): 0.0315 ± 0.0241 % of dose
GI 24 h ([1]; 50 mg/kg): 40.2 ± 11.6 % of dose
Ae 0–24 h ([1]; 100 mg/kg): 0.0270 ± 0.0113 % of dose
GI 24 h ([1]; 100 mg/kg): 41.2 ± 4.51 % of dose
tissue-to-plasma (T/P) ratio ([2]; intravenous 10 mg/kg, kidney, at 30 min): greater than unity
tissue-to-plasma (T/P) ratio ([2]; intravenous 10 mg/kg, large intestine and fat, at 180 min): greater than unity
tissue-to-plasma (T/P) ratio ([2]; intravenous 10 mg/kg, liver, small intestine and lung, at 30 and 180 min): greater than unity
tissue-to-plasma (T/P) ratio ([2]; oral 10 mg/kg, all tissues studied except the brain, at 30 and 180 min, 10 mg/kg): greater than unity; also recorded: above unity
metabolic activity in S9 fractions [3]: almost negligible metabolic activities
Source (samples in which detected) [4]: plasma, urine, feces, liver, small intestine, S9 fractions of liver and small intestine
substrate of P-glycoprotein (P-glycoprotein): substrate of P-glycoprotein
absorption in the Caco2 cell line (Caco2 cell line): low absorption
